The values below come from patent US12559718B2, “Diagnostic methods for t cell therapy” (Kite Pharma, Inc., priority 2015, dated 2026).

The data set is described as follows: Phase 1/2 trial of anti-CD19 CAR+ T cells: adverse events and dose-limiting toxicity. Conditions: 1 subject, onset at day 110 post anti-CD19 CAR+ T cell infusion. In kind it is in vivo, human. As to the method:
Subjects who signed informed consent and met study eligibility were enrolled into the study and underwent leukapheresis to obtain PBMCs for the production of anti-CD19 CAR+ T cells. […] Some subjects were then treated with interleukin-2 (Group 1 only), 3 hours after the anti-CD19 CAR+ T cell infusion. Retreatment of a second dose of anti-CD19 CAR+ T cells was allowed if there was a response of partial response (PR) or complete response (CR) after the first infusion and then subsequent disease progression.
Three groups of subjects were enrolled. […] These subjects also received high dose interleukin-2 (IL-2) at 720,000 IU/kg (every 8 hours until 15 doses or toxicity precluded additional doses) after the anti-CD19 CAR+ T cell administration to stimulate their proliferation.
Group 3 includes 11 subjects, who have received a reduced conditioning regimen of cyclophosphamide at 300 mg/m^2 and fludarabine at 30 mg/m^2, both given for 3 concurrent days with no IL-2.
Overall safety summaries include all 32 treated subjects.

Each structure is given as a SMILES string.

For the compound `Nc1nc(F)nc2c1ncn2[C@@H]1O[C@H](CO)[C@@H](O)[C@@H]1O` [fludarabine], the “Neurologic adverse event considered by the investigator related to fludarabine” value is listed as “grade 4 myelitis”.
